In patent US9283235B2, “Intermittent lowering of cortisol as treatment of clinical conditions associated with abnormal concentrations of cortisol in animals” (Stegram Pharmaceuticals Limited, priority 2001, dated 2016):

Assays:
canine PDH = details: of 10 dogs studied; cited from earlier work
[1] = system: dogs with hyperadrenocorticism (HAC); assay: Prospective study of trilostane in dogs with spontaneous hyperadrenocorticism (HAC): clinical signs and survival; format: in vivo, dog; details: given to 4 dogs for three to four days before enrolment
Procedure: Animals were entered into a prospective study and all animals required clinical and laboratory signs of hyperadrenocorticism as well as a final diagnosis of this disease. Data collected from each case included a clinical-historicy and physical examination, full blood count (CBC), serum biochemical profile, urinalysis and abdominal ultrasound. An ACTH-stimulation test was performed in all dogs. […] Dogs that had been treated for HAC other medication needed to be off these drugs for at least 10 days. Dogs with renal or hepatic insufficiency and dogs that received steroids were not included in the study.
Dogs with pituitary dependant hyperadrenocorticism or adrenal tumour which was unresectable or the owners were unwilling to have surgery performed, respectively, were treated with trilostane. The initial dose for dogs[…] was 30 mg once daily, dogs between 5 and 15 kg received 60 mg once daily and dogs>15 kg received 120 mg once daily. Dosages were adjusted based on clinical signs, blood biochemical parameters and an ACTH stimulation test.
Follow-up re-examinations took place after 10 days, 4 weeks, 3 mouths, 6 months and then every 6 months or within 4 weeks of adjusting the dosage. At these points, owners were carefully questioned about their perception of the dogs general well being, dissolution of clinical signs and potential side effects and a physical examination was performed. A full biochemical profile and an ACTH stimulation test were carried out. Further tests such as urinanalysis, urine culture, thoracic radiographs, etc. were done if deemed necessary. If the clinical sips of hyperadrenocorticism (polyuria/polydipsia, polyphagia, exercise intolerance, etc.) were still present and if the post-ACTH cortisol concentration remained above 220 nmol/l, trilostane was given twice daily at the same dosage.

**Q.** With C#CCN(C)[C@H](C)Cc1ccccc1 [L-Deprenyl] as the compound, how does the “Dogs with improvement of clinical signs” value (canine PDH) read?
**A.** The value was 2 dogs.

**Q.** With Clc1ccc(C(c2ccccc2Cl)C(Cl)Cl)cc1 (centres unmarked) [Lysodren] as the compound, how does the Clinical effect [1] read?
**A.** The Clinical effect was “did not show any clinical effect”.
